Laboratory results published in paper PMC6108528, “Enhanced uptake of potassium or glycine betaine or export of cyclic-di-AMP restores osmoresistance in a high cyclic-di-AMP Lactococcus lactis mutant” (PLoS Genetics, 2018).

Molecular target: T1, full length BusR (Lactococcus cremoris, UniProt A2RK30)
T1 construct: full length, His-6 tag fusion in pRSETA, codon optimised, E. coli BL21 whole cell lysate
T1 sequence (A2RK30 1-206): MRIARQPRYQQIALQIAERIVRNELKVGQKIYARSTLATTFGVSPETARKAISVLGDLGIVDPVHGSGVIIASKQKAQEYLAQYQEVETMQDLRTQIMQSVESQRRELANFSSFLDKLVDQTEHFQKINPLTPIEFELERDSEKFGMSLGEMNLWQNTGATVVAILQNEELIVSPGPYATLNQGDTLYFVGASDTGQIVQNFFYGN
Assay: DRaCALA with […]-c-di-AMP, E. coli whole cell lysate
Format: biochemical
Conditions: labelled compound; room temperature, 10 min

`Nc1ncnc2c1ncn2[C@@H]1O[C@@H]2COP(=O)(O)O[C@H]3[C@@H](O)[C@H](n4cnc5c(N)ncnc54)O[C@@H]3COP(=O)(O)O[C@H]2[C@H]1O` [c-di-AMP] was tested, and the “DRaCALA with 32P-c-di-AMP, E. coli whole cell lysate” value was “Both full length BusR and the BusR TrkA_C domain bound c-di-AMP”.
